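A five-concentration, 48-hour dose response in 96-well plates underlies each endpoint, interpolated linearly between surrounding concentrations. The concentration for 50% growth inhibition is given as GI50.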 Active and inactive are the calls of the source. No stated cut-off is given here; in the data, active = GI50 up to about 1.1 µM and inactive = higher.
Tests used:
Assay in all cases: NCI anticancer screen, dose series, 48 h
CCRF-CEM = tested on: CCRF-CEM
HCT-116 = tested on: HCT-116
HCT-15 = tested on: HCT-15
HL-60 = tested on: HL-60
HOP-92 = tested on: HOP-92
KM12 = tested on: KM12
MDA-MB-231 = tested on: MDA-MB-231
MOLT-4 = tested on: MOLT-4
NCI-H522 = tested on: NCI-H522
OVCAR-3 = tested on: OVCAR-3
OVCAR-5 = tested on: OVCAR-5
PC-3 = tested on: PC-3
RXF 393 = tested on: RXF 393
SF-539 = tested on: SF-539
SK-MEL-28 = tested on: SK-MEL-28
SN12C = tested on: SN12C
SNB-19 = tested on: SNB-19
SR = tested on: SR
TK-10 = tested on: TK-10
U-251 = tested on: U-251

Structure (SMILES) | GI50 (CCRF-CEM) | GI50 (HCT-116) | GI50 (HCT-15) | GI50 (HL-60) | GI50 (HOP-92) | GI50 (KM12) | GI50 (MDA-MB-231) | GI50 (MOLT-4) | GI50 (NCI-H522) | GI50 (OVCAR-3) | GI50 (OVCAR-5) | GI50 (PC-3) | GI50 (RXF 393) | GI50 (SF-539) | GI50 (SK-MEL-28) | GI50 (SN12C) | GI50 (SNB-19) | GI50 (SR) | GI50 (TK-10) | GI50 (U-251)
COC(=O)c1cnc(Cl)c([N+](=O)[O-])c1 | 2.11 µM (inactive) | 2.77 µM (inactive) | 2 µM | 2.42 µM (inactive) | 2.17 µM (inactive) | 17.4 µM (inactive) | 16.3 µM (inactive) | 2.42 µM (inactive) | 1.64 µM (inactive) | 14.8 µM (inactive) | 17.7 µM (inactive) | 10.7 µM (inactive) | 12 µM (inactive) | 16.6 µM (inactive) | 17.1 µM (inactive) | 12.9 µM (inactive) | 18.5 µM (inactive) | 1.9 µM (inactive) | 16.3 µM (inactive) | 2.16 µM (inactive)
Clc1cc(OC23CC4CC(CC(C4)C2)C3)nc(Cl)n1 | 23.6 µM (inactive) | 46.3 µM (inactive) | 29.6 µM | 10 µM (inactive) | 1.7 µM (inactive) | > 100 µM (inactive) | 33.7 µM (inactive) | 34 µM (inactive) | 90.2 µM (inactive) | 39.2 µM (inactive) | > 100 µM (inactive) | > 100 µM (inactive) | 27.8 µM (inactive) | > 100 µM (inactive) | 43.2 µM (inactive) | > 100 µM (inactive) | > 100 µM (inactive) | 19.8 µM (inactive) | > 100 µM (inactive) | 55.8 µM (inactive)
COc1ccc(/C=C2\CCC(CN(C)C)C2=O)cc1OC (stereo not given) | 1.32 µM (inactive) | 2.3 µM (inactive) | 2.9 µM | 2.07 µM (inactive) | 5.69 µM (inactive) | 2.37 µM (inactive) | 2.35 µM (inactive) | 1.29 µM (inactive) | 1.95 µM (inactive) | 7.21 µM (inactive) | 14.8 µM (inactive) | 7.55 µM (inactive) | 1.94 µM (inactive) | 10.5 µM (inactive) | 5.48 µM (inactive) | 3.43 µM (inactive) | 16.5 µM (inactive) | 1.86 µM (inactive) | 7.14 µM (inactive) | 16.1 µM (inactive)
CC(C)(C)[Si](C)(C)OCC1OC(n2ccc(=O)[nH]c2=O)C(O[Si](C)(C)C(C)(C)C)/C1=C/C#N (stereo not given) | 4.23 µM (inactive) | 3.36 µM (inactive) | 4.9 µM | 2.86 µM (inactive) | 5.93 µM (inactive) | 3.66 µM (inactive) | 8.41 µM (inactive) | 2.72 µM (inactive) | 3.67 µM (inactive) | 7.29 µM (inactive) | 20.4 µM (inactive) | 2.88 µM (inactive) | 2.91 µM (inactive) | 5.14 µM (inactive) | 1.49 µM (inactive) | 3.78 µM (inactive) | 31.8 µM (inactive) | 3.5 µM (inactive) | 12.7 µM (inactive) | 4.21 µM (inactive)

Reference: ChEMBL document CHEMBL1201862, “PubChem BioAssay data set” (2004)
